In one data set the test system is LPS-induced sepsis. Briefly: LPS-induced sepsis lethality in Balb/c mice (survival). The data set is classed as in vivo. To be noted: LPS 10 mg/kg i.p., 1.0 mg/kg s.c. As for the experimental part: Male Balb/c mice (11 week) were purchased from Kyudo (Saga, Japan) and maintained under a 12-hour light/12-hour dark cycle with free access to water and standard mouse diet (MF diet, Oriental Yeast Co., Ltd. Tokyo, Japan). […] Test articles were administered right after LPS administration. Survival was observed every 2 hours.
Table 1. […] Shown is the % survival by hours. […] Survival was observed every 2 hours (FIGS. 13A and 13B). First mortality observed was in Italicized and bold and the last observation survival % was in bold in the table.

For data set [1] the following is noted: healthy human volunteers, bolus injection; cited from earlier work.
Data set [2] can be described thus: Pharmacokinetic study: plasma CNP (ELISA) after subcutaneous bolus in CD-1 mice. The protocol: All test articles were formulated or dissolved in 100 mM sorbitol, 100 mM methionine, 20 mM histidine, pH 6.0. […] Blood samples were processed in K2EDTA tubes to obtain plasma. Plasma was analyzed by commercially available CNP ELISA kit from Phoenix Pharmaceuticals (cat #EKE-012-03).
A general note: In an ELISA, binding on a coated surface is turned into a signal by an enzyme label.

For data set [3] the following is noted: species not stated; cited from earlier work.
Data set [4] in a line: Pharmacokinetic study of dCNP-s1 and dCNP-s2: plasma CNP (ELISA) in CD-1 mice. Type of data set: in vivo. To be noted: 2.0 mg/Kg s.c. bolus, FIG. 20. As for the experimental part:
For this pharmacokinetic study, all animals (mice) for this study were maintained under a 12-hour light/12-hour dark cycle with free access to water and standard mouse diet (Lab Pico Rodent #5053; Animal Specialties, Woodburn, OR). Male CD-1 mice (6-8 weeks old; Charles River, Hollister, CA) were treated with 2.0 mg/Kg of CNP derivative s1 (dCNP-s1; PharmaIN Corp, Bothell, WA), and CNP derivative s2 (dCNP-s2; PharmaIN Corp, Bothell, WA) via subcutaneous administration between the shoulder blades.

The conditions of data set [5]: in vivo; cited from earlier work.
Setting [6] is: hours '0' [sic] (second to last observation).

As usually defined, the half-life is the time needed for the level to fall by half in the phase considered.

Numbered stars: 1 amine (or outer) side, 2 acyl side, 3 side chain; on linkers, the order of the positions; unused ones are H or OH. Bridge positions count the residues as written; N and C are the ends. Square brackets hold non-standard residues; d marks the D form. Peptide text beside a SMILES is read from it. * marks the point of attachment. C18 diacid = O=C(O)CCCCCCCCCCCCCCCCC(=O)*; γGlu = O=C(O)[C@H](CCC(=O)[*:2])N[*:1]; Aad = N[C@@H](CCCC(=O)O)C(=O)O; AEEA = NCCOCCOCC(=O)O

Turning to `CC[C@H](C)[C@@H]1NC(=O)[C@H](CCCNC(=N)N)NC(=O)[C@H](CC(=O)O)NC(=O)[C@H](CCSC)NC(=O)[C@H](CCCNC(=N)N)NC(=O)CNC(=O)CNC(=O)[C@H](Cc2ccccc2)NC(=O)[C@@H](NC(=O)[C@H](CO)NC(=O)[C@H](CO)NC(=O)[C@H](CCCNC(=N)N)NC(=O)[C@H](CCCNC(=N)N)NC(=O)[C@H](CC(C)C)NC(=O)[C@@H](N)CO)CSSC[C@@H](C(=O)N[C@@H](CC(N)=O)C(=O)N[C@@H](CO)C(=O)N[C@@H](Cc2ccccc2)C(=O)N[C@@H](CCCNC(=N)N)C(=O)N[C@@H](Cc2ccc(O)cc2)C(=O)O)NC(=O)CNC(=O)[C@H](CC(C)C)NC(=O)CNC(=O)[C@H](CO)NC(=O)[C@H](CCC(N)=O)NC(=O)[C@H](C)NC(=O)CNC1=O` [ANP, atrial natriuretic peptide], the “Percent animal survival at various time after LPS administration” value (“Percent animal survival at various time” below) in the data set on LPS-induced sepsis (hours 1 (last observation)) was determined as 10%; with LPS-induced sepsis (hours 3 [sic]), 100%; with LPS-induced sepsis (hours 7 [sic]), 60%; in the data set on LPS-induced sepsis (hours 9 [sic]), 30%; in the data set with LPS-induced sepsis (hours '0') it was 100%; with LPS-induced sepsis (setting [6]), 10%. Further, the “Percent animal survival at various time” value in the data set with LPS-induced sepsis (hours '2') stood at 100%; in the data set on LPS-induced sepsis (hours '8') it was 30%; with LPS-induced sepsis (hours printed '6' (r14)), 60%.

For `CC[C@H](C)[C@@H]1NC(=O)[C@H](CCCNC(=N)N)NC(=O)[C@H](CC(=O)O)NC(=O)[C@H](CC(C)C)NC(=O)[C@H](CCCCN)NC(=O)[C@H](CC(C)C)NC(=O)CNC(=O)[C@H](Cc2ccccc2)NC(=O)[C@@H](NC(=O)CNC(=O)[C@H](CCCCN)NC(=O)[C@H](CO)NC(=O)[C@H](CC(C)C)NC(=O)CN)CSSC[C@@H](C(=O)O)NC(=O)CNC(=O)[C@H](CC(C)C)NC(=O)CNC(=O)[C@H](CO)NC(=O)[C@H](CCSC)NC(=O)[C@H](CO)NC(=O)CNC1=O` [CNP], in data set [1], the heart rate result was “significant increase in heart rate”; the “systolic and diastolic blood pressure” value is listed as “transient but significant decrease”. The “plasma CNP” value in data set [2] (CD-1 mice, 2.0 mg/Kg s.c. bolus, FIG. 1A) is recorded as “low plasma level of CNP”. For the same compound, the half-life in data set [3] is 2 to 13 min.

On to `CCCc1nc(C)c2c(=O)[nH]c(-c3cc(S(=O)(=O)N4CCN(CC)CC4)ccc3OCC)nn12` [VDN, Vardenafil], for which the “Percent animal survival at various time” value in the data set with LPS-induced sepsis (hours 1 (last observation)) was 0%; in the data set on LPS-induced sepsis (hours 3 [sic]), 100%; in the data set on LPS-induced sepsis (hours 7 [sic]), 60%; in the data set on LPS-induced sepsis (hours 9 [sic]) it was 20%; in the data set on LPS-induced sepsis (hours '0'), 100%; in the data set on LPS-induced sepsis (setting [6]), 0%. Besides, the “Percent animal survival at various time” value in the data set with LPS-induced sepsis (hours '2') turned out to be 100%; in the data set on LPS-induced sepsis (hours '8'), 20%; in the data set with LPS-induced sepsis (hours printed '5' (r13)) it was 100%.

Turning to `CC[C@H](C)[C@@H]1NC(=O)[C@H](CCCNC(=N)N)NC(=O)[C@H](CC(=O)O)NC(=O)[C@H](CC(C)C)NC(=O)[C@H](CCCCN)NC(=O)[C@H](CC(C)C)NC(=O)CNC(=O)[C@H](Cc2ccccc2)NC(=O)[C@@H](NC(=O)CNC(=O)COCCOCCNC(=O)COCCOCCNC(=O)CCCCCCCCCCCCCCCCC(=O)O)CSSC[C@@H](C(=O)O)NC(=O)CNC(=O)[C@H](CC(C)C)NC(=O)CNC(=O)[C@H](CO)NC(=O)[C@H](CCCC(N)=O)NC(=O)[C@H](CO)NC(=O)CNC1=O` [dCNP-s1] ({C18 diacid-AEEA-AEEA}-GCFGLKLDRIGS[Aad](NH2)SGLGC-OH; disulfide 2-18), the “blood level of CNP relative to native CNP at similar weight/Kg dose” value in data set [4] worked out at 10 fold.

With `CC[C@H](C)[C@@H]1NC(=O)[C@H](CCCNC(=N)N)NC(=O)[C@H](CC(=O)O)NC(=O)[C@H](CC(C)C)NC(=O)[C@H](CCCCN)NC(=O)[C@H](CC(C)C)NC(=O)CNC(=O)[C@H](Cc2ccccc2)NC(=O)[C@@H](NC(=O)CNC(=O)COCCOCCNC(=O)COCCOCCNC(=O)CC[C@H](NC(=O)CCCCCCCCCCCCCCCCC(=O)O)C(=O)O)CSSC[C@@H](C(=O)O)NC(=O)CNC(=O)[C@H](CC(C)C)NC(=O)CNC(=O)[C@H](CO)NC(=O)[C@H](CCCC(N)=O)NC(=O)[C@H](CO)NC(=O)CNC1=O` [dCNP-s2] ({C18 diacid-γGlu-AEEA-AEEA}-GCFGLKLDRIGS[Aad](NH2)SGLGC-OH; disulfide 2-18), in data set [4], the “blood level of CNP relative to native CNP at similar weight/Kg dose” value worked out at 10 fold.

Consider `CCCCCCCCCCCCCCCCCC(=O)N[C@@H](CCCCN)C(=O)N[C@@H](CCCCN)C(=O)N[C@@H](CCCCN)C(=O)N[C@@H](CCCCN)C(=O)NCC(=O)NCC(=O)NCC(=O)NCC(=O)N[C@@H](CC(C)C)C(=O)N[C@@H](CO)C(=O)N[C@@H](CCCCN)C(=O)NCC(=O)N[C@H]1CSSC[C@@H](C(=O)O)NC(=O)CNC(=O)[C@H](CC(C)C)NC(=O)CNC(=O)[C@H](CO)NC(=O)[C@H](CCSC)NC(=O)[C@H](CO)NC(=O)CNC(=O)[C@H]([C@@H](C)CC)NC(=O)[C@H](CCCNC(=N)N)NC(=O)[C@H](CC(=O)O)NC(=O)[C@H](CC(C)C)NC(=O)[C@H](CCCCN)NC(=O)[C@H](CC(C)C)NC(=O)CNC(=O)[C@H](Cc2ccccc2)NC1=O` [dCNP], for which the “plasma CNP” value in data set [2] (mouse, in vivo, sc, 2 mg/kg) is on record as “sustained plasma presence”.

B-type natriuretic peptide [BNP]: the “Percent animal survival at various time” value in the data set with LPS-induced sepsis (hours 1 (last observation)) worked out at 10%; in the data set with LPS-induced sepsis (hours 3 [sic]), 100%; with LPS-induced sepsis (hours 7 [sic]), 60%; with LPS-induced sepsis (hours 9 [sic]) it was 20%; in the data set with LPS-induced sepsis (hours '0'), 100%; with LPS-induced sepsis (setting [6]), 10%. Besides, the “Percent animal survival at various time” value in the data set on LPS-induced sepsis (hours '2') is given as 100%; with LPS-induced sepsis (hours '8'), 20%; in the data set with LPS-induced sepsis (hours printed '5' (r13)) it was 100%.

As to “PGQEHPNARKYKGANKKGLS KGCFGLKLDR IGSMSGLGC (PGQEHPNARKYKGANKKGLSKGCFGLKLDRIGSMSGLGC) [BMN-111]”, in data set [5], the “arterial blood pressure (BP)” value is “drops” and the “heart rate (HR)” value was “increases”.
